Assay results as given in patent US7763656B2, “Use of Acetylamino benzoic acid compounds for nonsense suppression and the treatment of disease” (PTC Therapeutics, Inc., priority 2002, dated 2010).

Key:
28S rRNA = experiment: chemical foot-printing of ribosomes prepared from HeLa cells (DMS, kethoxal); type: binding; conditions: 100 μM, DMS and kethoxal
Experimental: Ribosomes prepared from HeLa cells were incubated with the small molecules (at a concentration of 100 μM), followed by treatment with chemical modifying agents (dimethyl sulfate [DMS] and kethoxal [KE]). Following chemical modification, rRNA was phenol-chloroform extracted, ethanol precipitated, analyzed in primer extension reactions using end-labeled oligonucleotides hybridizing to different regions of the three rRNAs and resolved on 6% polyacrylamide gels. The probes used for primer extension cover the entire 18S (7 oligonucleotide primers), 28S (24 oligonucleotide primers), and 5S (one primer) rRNAs. Controls in these experiments include DMSO (a control for changes in rRNA accessibility induced by DMSO), paromomycin (a marker for 18S rRNA binding), and anisomycin (a marker for 28S rRNA binding).

[1] = system: CFTR in a bronchial epithelial cell line harboring a nonsense codon at amino acid 1282 (W1282X); experiment: CFTR function as cAMP-activated chloride channel, SPQ assay; type: cell-based; conditions: compound, cAMP stimulation
Experimental: To address the effects of the nonsense-suppressing compounds on mRNAs altered in specific inherited diseases, a bronchial epithelial cell line harboring a nonsense codon at amino acid 1282 (W1282X) was treated with 3-[2-(4-Isopropyl-3-methyl-phenoxy)-acetylamino]-benzoic acid, sodium salt (20RM) and CFTR function was monitored as a cAMP-activated chloride channel using the SPQ assay (Yang et al., 1993, Hum Mol Genet. 2(8):1253-1261 and Howard et al., 1996, Nat Med. 2(4):467-469). […] No increase in fluorescence was observed when cells were not treated with compound or if the cells were not stimulated with cAMP.

[2] = system: dystrophin in mouse primary skeletal muscle cultures derived from mdx mice; experiment: dystrophin immunostaining in primary skeletal muscle cultures from mdx mice; type: cell-based; conditions: 20 μM, cells cultured for 10 days
Experimental: Mouse primary skeletal muscle cultures derived from 1-day old mdx mice were prepared as described previously (Barton-Davis et al., 1999, J Clin Invest. 104(4):375-381). Cells were cultured for 10 days in the presence of 3-[2-(4-Isopropyl-3-methyl-phenoxy)-acetylamino]-benzoic acid, sodium salt (20 μM). Culture medium was replaced every four days and the presence of dystrophin in myoblast cultures was detected by immunostaining as described previously (Barton-Davis et al., 1999, J Clin Invest. 104(4):375-381). A primary monoclonal antibody to the C-terminus of the dystrophin protein (F19A12) was used undiluted and rhodamine conjugated anti-mouse IgG was used as the secondary antibody. The F19A12 antibody will detect the full-length protein produced by suppression of the nonsense codon. Staining was viewed using a Leica DMR micropscope, digital camera, and associated imaging software at the University of Pennsylvania.

Cc1cc(OCC(=O)Nc2cccc(C(=O)[O-])c2)ccc1C(C)C.[Na+] [Compound 46, 3-[2-(4-Isopropyl-3-methyl-phenoxy)-acetylamino]-benzoic acid, Sodium salt]
accessibility of chemical modifying agents to rRNA nucleotides (foot-printing) (28S rRNA): alters the accessibility of the chemical modifying agents to specific nucleotides in the 28S rRNA | CFTR function (SPQ fluorescence, chloride channel activity) [1]: increase chloride channel activity | full-length dystrophin expression (immunostaining) [2]: EXPRESS FULL-LENGTH […] | melting point: 188 to 189 °C
